Assay results reported in patent US20080200404A1, “Novel Antimalarial 9A-Carbamoyl-Aminoalkyl and 9A-Thiocarbamoyl-Aminoalkyl Azalides” (priority 2005, published 2008).
Converted amounts (≈) assume the structure as drawn. Where two headings read alike, the source gives them in different places.

How the values were obtained:
Assay type in all cases: cell-based
[1] = test system: Plasmodium falciparum TM91C235; test: In vitro antimalarial [3H]-hypoxanthine incorporation assay, TM91C235; conditions: P. falciparum TM91C235 (multiple drug resistant isolate), 72 hours exposure; for IC50: Plasmodium falciparum
Excerpt: (§1) The in vitro screens for intrinsic antimalarial activity were based on modifications of the procedures described by Desjardins R E, Canfield C J, Haynes J D, Chulay J D. (Quantitative assessment of antimalarial activity in vitro by a semiautomated microdilution technique. Antimicrob Agents Chemother. 1979 December; 16(6):710-8.), Chulay J D, Haynes J D, Diggs C L. (Plasmodium falciparum: Assessment of in vitro growth by [3H]hypoxanthine incorporation. Exp. Parasitol. 1983 55:138-146.), and Milhous W K, Weatherly N F, Bowdre J H, Desjardins R E. (In vitro activities of and mechanisms of resistance to antifol antimalarial drugs. Antimicrob Agents Chemother. 1985 April; 27(4):525-30.). The system was limited to the assessment of the intrinsic activity against the erythrocytic asexual life cycle (blood schizontocides). Two Plasmodium falciparum clones from CDC/Indochina III (W-2) and CDC/Sierra Leone I (D-6) (Oduola A M, Weatherly N F, Bowdre J H, Desjardins R E. Plasmodium falciparum: cloning by single-erythrocyte micromanipulation and heterogeneity in vitro. Exp Parasitol. 1988 66(1):86-95.) were used for all assays. TM91C235, a multiple drug resistant isolate from Thailand, was used for the prescreening assay. W-2 is resistant to chloroquine, quinine, and pyrimethamine and susceptible to mefloquine. D-6 tends to be more resistant to mefloquine and susceptible to chloroquine, quinine, and pyrimethamine. All documents cited in this paragraph are incorporated by reference in their entirety.
(§2) All parasites were maintained in continuous long term cultures in RPMI-1640 medium supplemented with 6% washed human A positive (A+)(erythrocytes, 25 mM Hepes, […], and 10% heat inactivated A+human plasma or ALBUMAX® (lipid-rich bovine serum albumin; Invitrogen, Carlsbad, Calif.). All cultures and assays were conducted at 37° C. under an atmosphere of 5% CO2 and 5% O2, with a balance of N2.
The prescreening assay uses TM91C235 diluted at a 0.4% parasitemia in a 1% hematocrit in folic acid free and p-aminobenzoic acid free media RPMI-1640 and ALBUMAX®. One mg of the compound is typically dissolved in 100 μl of dimethyl sulfoxide (DMSO). The compound is further diluted in culture medium (FF) with ALBUMAX® for the first initial starting concentration. The rest of the stock drug solution was kept at −70° C. The isolate was preexposed, in duplicate, at three concentrations (25,000 ng/ml, 2,500 ng/ml, and 25 ng/ml) of the test compound for 48 hr in a 96-well microtiter plate (MTP) using the BIOMEK® 2000 automated laboratory workstation. Each MTP contains chloroquine as control to assess the relative activity of the compound and to monitor the response of TM91C235.
(§3) After the preincubation, [^3H]-hypoxanthine was added to each well of the MTP. (The assay relies on the incorporation of radiolabeled hypoxanthine by the parasites, which indicates reproduction, and inhibition of isotope incorporation was attributed to activity of known or candidate antimalarial drugs). After 72 hr of total incubation time, the MTP were frozen to lyse the erythrocytes and parasites. The parasite DNA was recovered by harvesting the lysate onto glass-fiber filter plates using a Packard FilterMate™ Cell Harvester. The radioactivity was counted on a Packard TopCount™ microplate scintillation counter. The results were recorded as counts per minutes (CPM) per well at each drug concentration divided by the arithmetic mean of the CPM from the three untreated infection parasite control wells.
The serial dilution assay was conducted using the same assay conditions and stock solution of the compound used for the preliminary screen, described above. Both the D-6 and the W-2 clones were used. The compounds were diluted two-fold over 11 different concentration ranges with a starting concentration that was based on the preliminary screen. […]

[2] = test system: Plasmodium falciparum clone CDC/Indochina III (W-2); test: In vitro antimalarial [3H]-hypoxanthine incorporation serial dilution assay, W2; conditions: P. falciparum W2, 72 hours exposure; for IC50: Plasmodium falciparum
Excerpt: as §1, §2, §3
(§4) The serial dilution assay was conducted using the same assay conditions and stock solution of the compound used for the preliminary screen, described above. Both the D-6 and the W-2 clones were used. The compounds were diluted two-fold over 11 different concentration ranges with a starting concentration that was based on the preliminary screen. For each drug, the concentration response profile was determined and 50% inhibitory concentrations (IC50) were determined by using a non-linear, logistic dose response analysis program. […] For each assay, the IC50 for each clone was determined against the known antimalarials chloroquine and mefloquine. These control values established the compound's relative parasite susceptibility profile compared to known antimalarials. […]
(§5) The in vitro potency of the compounds has been compared with that of azithromycin to better gauge compounds suitable for further testing. As described above, parasites were exposed for 72 hours. Data from the in vitro potency tests of azithromycin against the three parasite strains have been averaged, and these numbers have been used for identification of “active” macrolide compounds.

[3] = test system: Plasmodium falciparum clone CDC/Sierra Leone I (D-6); test: In vitro antimalarial [3H]-hypoxanthine incorporation serial dilution assay, D6; conditions: P. falciparum D6, 72 hours exposure; for IC50: Plasmodium falciparum, D6, 72 h
Excerpt: as §1, §2, §3, §4, §5

[4] = compared with azithromycin, read-out: IC50 D6 (class symbol)

| SMILES | IC50 TM91C235 [1] [µg/mL] | IC50 W2 [2] [µg/mL] | IC50 D6 [3] [µg/mL] | IC50 [1] [µg/mL] | IC50 [2] [µg/mL] | IC50 ([3]; read-out: IC50 D6) [µg/mL] | IC50 [3, 4] [µg/mL] |
| --- | --- | --- | --- | --- | --- | --- | --- |
| CCC1OC(=O)C(C)C(OC2CC(C)(OC)C(O)C(C)O2)C(C)C(OC2OC(C)CC(N(C)C)C2O)C(C)(O)CC(C)CN(CCNC(=O)Nc2ccc3ccccc3c2)C(C)C(O)C1(C)O (stereo not drawn) [Example 12, 9-Deoxo-9-dihydro-9a-[N′-(2-naphtyl)carbamoyl-β-aminoethyl]-9a-aza-9a-homoerythromycin A] | 0.0289 (≈ 0.0305 µM) | 0.0432 (≈ 0.0456 µM) | 0.0713 (≈ 0.0753 µM) | – | – | – | – |
| C=CCNC(=S)NCCCN1C[C@H](C)C[C@@](C)(O)[C@H](O[C@@H]2O[C@H](C)C[C@H](N(C)C)[C@H]2O)[C@@H](C)[C@H](O[C@H]2C[C@@](C)(OC)[C@@H](O)[C@H](C)O2)[C@@H](C)C(=O)O[C@H](CC)[C@@](C)(O)[C@H](O)[C@H]1C [Example 111] | – | – | – | 0.459 (≈ 0.514 µM) | 0.246 (≈ 0.276 µM) | – | > 0.797 |
| CC[C@H]1OC(=O)[C@H](C)[C@@H](O[C@H]2C[C@@](C)(OC)[C@@H](O)[C@H](C)O2)[C@H](C)[C@@H](O[C@@H]2O[C@H](C)C[C@H](N(C)C)[C@H]2O)[C@](C)(O)C[C@@H](C)CN(CCCNC(=O)Nc2ccccc2-c2ccccc2)[C@H](C)[C@@H](O)[C@]1(C)O.O=CO [Example 85] | – | – | – | 0.142 | 0.209 | 0.262 | – |
| CC[C@H]1OC(=O)[C@H](C)[C@@H](O[C@H]2C[C@@](C)(OC)[C@@H](O)[C@H](C)O2)[C@H](C)[C@@H](O[C@@H]2O[C@H](C)C[C@H](N(C)C)[C@H]2O)[C@](C)(O)C[C@@H](C)CN(CCCNC(=S)NC2CC2)[C@H](C)[C@@H](O)[C@]1(C)O [Example 113] | – | – | – | 0.866 (≈ 0.972 µM) | 0.605 (≈ 0.679 µM) | – | > 0.797 |
| CC[C@H]1OC(=O)[C@H](C)[C@@H](O[C@H]2C[C@@](C)(OC)[C@@H](O)[C@H](C)O2)[C@H](C)[C@@H](O[C@@H]2O[C@H](C)C[C@H](N(C)C)[C@H]2O)[C@](C)(O)C[C@@H](C)CN(CCCNC(=S)Nc2ccc(F)c(F)c2F)[C@H](C)[C@@H](O)[C@]1(C)O [Example 133] | – | – | – | 0.0723 (≈ 0.0737 µM) | 0.162 (≈ 0.165 µM) | 0.441 (≈ 0.449 µM) | – |
| CC[C@H]1OC(=O)[C@H](C)[C@@H](O[C@H]2C[C@@](C)(OC)[C@@H](O)[C@H](C)O2)[C@H](C)[C@@H](O[C@@H]2O[C@H](C)C[C@H](N(C)C)[C@H]2O)[C@](C)(O)C[C@@H](C)CN(CCCNC(=S)NC2CC3C=CC2C3)[C@H](C)[C@@H](O)[C@]1(C)O.O=CO (stereo partly drawn) [Example 151] | – | – | – | 0.181 | 0.171 | 0.299 | – |
| CC[C@H]1OC(=O)[C@H](C)[C@@H](O[C@@H]2C[C@@H](C)[C@H](O)[C@](C)(OC)C2)[C@H](O)[C@@H](O[C@@H]2O[C@H](C)C[C@H](N(C)C)[C@H]2O)[C@](C)(O)C[C@@H](C)CN(CCCNC(=O)Nc2ccc(OCc3ccccc3)cc2)[C@H](C)[C@@H](O)[C@]1(C)O [Example 87] | – | – | – | 0.148 (≈ 0.146 µM) | 0.178 (≈ 0.175 µM) | 0.304 (≈ 0.299 µM) | – |
| CC[C@H]1OC(=O)[C@H](C)[C@@H](O[C@H]2C[C@@](C)(OC)[C@@H](O)[C@H](C)O2)[C@H](C)[C@@H](O[C@@H]2O[C@H](C)C[C@H](N(C)C)[C@H]2O)[C@](C)(O)C[C@@H](C)CN(CCCNC(=S)NC(c2ccccc2)(c2ccccc2)c2ccccc2)[C@H](C)[C@@H](O)[C@]1(C)O.O=CO [Example 125] | – | – | – | 0.0364 | 0.0422 | 0.142 | – |

The remaining lines, values ahead:

| IC50 TM91C235 [1] [µg/mL] | IC50 W2 [2] [µg/mL] | IC50 D6 [3] [µg/mL] | IC50 [1] [µg/mL] | IC50 [2] [µg/mL] | IC50 ([3]; read-out: IC50 D6) [µg/mL] | IC50 [3, 4] [µg/mL] | SMILES |
| --- | --- | --- | --- | --- | --- | --- | --- |
| – | – | – | 0.12 (≈ 0.121 µM) | 0.0626 (≈ 0.063 µM) | 0.215 (≈ 0.216 µM) | – | CC[C@H]1OC(=O)[C@H](C)[C@@H](O[C@H]2C[C@@](C)(OC)[C@@H](O)[C@H](C)O2)[C@H](C)[C@@H](O[C@@H]2O[C@H](C)C[C@H](N(C)C)[C@H]2O)[C@](C)(O)C[C@@H](C)CN(CCCNC(=S)Nc2ccc(OC(F)F)cc2)[C@H](C)[C@@H](O)[C@]1(C)O [Example 106] |
| – | – | – | 0.131 (≈ 0.139 µM) | 0.0688 (≈ 0.0728 µM) | 0.302 (≈ 0.32 µM) | – | CC[C@H]1OC(=O)[C@H](C)[C@@H](O[C@H]2C[C@@](C)(OC)[C@@H](O)[C@H](C)O2)[C@H](C)[C@@H](O[C@@H]2O[C@H](C)C[C@H](N(C)C)[C@H]2O)[C@](C)(O)C[C@@H](C)CN(CCCNC(=S)Nc2ccc(F)cc2)[C@H](C)[C@@H](O)[C@]1(C)O [Example 99] |
| – | – | – | 0.201 (≈ 0.209 µM) | 0.0737 (≈ 0.077 µM) | 0.46 (≈ 0.48 µM) | – | CC[C@H]1OC(=O)[C@H](C)[C@@H](O[C@H]2C[C@@](C)(OC)[C@@H](O)[C@H](C)O2)[C@H](C)[C@@H](O[C@@H]2O[C@H](C)C[C@H](N(C)C)[C@H]2O)[C@](C)(O)C[C@@H](C)CN(CCCNC(=S)Nc2ccc(OC)cc2)[C@H](C)[C@@H](O)[C@]1(C)O [Example 102] |
| – | – | – | 0.0746 (≈ 0.0783 µM) | 0.0676 (≈ 0.0709 µM) | 0.214 (≈ 0.225 µM) | – | CC[C@H]1OC(=O)[C@H](C)[C@@H](O[C@H]2C[C@@](C)(OC)[C@@H](O)[C@H](C)O2)[C@H](C)[C@@H](O[C@@H]2O[C@H](C)C[C@H](N(C)C)[C@H]2O)[C@](C)(O)C[C@@H](C)CN(CCCNC(=O)Nc2ccc(C(C)C)cc2)[C@H](C)[C@@H](O)[C@]1(C)O [Example 66] |
| – | – | – | 0.462 (≈ 0.484 µM) | 0.195 (≈ 0.204 µM) | – | > 0.797 | CC[C@H]1OC(=O)[C@H](C)[C@@H](O[C@H]2C[C@@](C)(OC)[C@@H](O)[C@H](C)O2)[C@H](C)[C@@H](O[C@@H]2O[C@H](C)C[C@H](N(C)C)[C@H]2O)[C@](C)(O)C[C@@H](C)CN(CCCNC(=O)NCc2ccc(OC)cc2)[C@H](C)[C@@H](O)[C@]1(C)O [Example 67] |
| – | – | – | 0.254 (≈ 0.265 µM) | 0.106 (≈ 0.111 µM) | 0.798 (≈ 0.835 µM) | – | CC[C@H]1OC(=O)[C@H](C)[C@@H](O[C@H]2C[C@@](C)(OC)[C@@H](O)[C@H](C)O2)[C@H](C)[C@@H](O[C@@H]2O[C@H](C)C[C@H](N(C)C)[C@H]2O)[C@](C)(O)C[C@@H](C)CN(CCCNC(=O)Nc2ccc3c(c2)OCO3)[C@H](C)[C@@H](O)[C@]1(C)O [Example 68] |
| – | – | – | 0.0745 (≈ 0.0782 µM) | 0.0476 (≈ 0.05 µM) | 0.126 (≈ 0.132 µM) | – | CC[C@H]1OC(=O)[C@H](C)[C@@H](O[C@H]2C[C@@](C)(OC)[C@@H](O)[C@H](C)O2)[C@H](C)[C@@H](O[C@@H]2O[C@H](C)C[C@H](N(C)C)[C@H]2O)[C@](C)(O)C[C@@H](C)CN(CCCNC(=S)Nc2ccc(C#N)cc2)[C@H](C)[C@@H](O)[C@]1(C)O [Example 98] |
